According to ChEMBL document CHEMBL1201862, “PubChem BioAssay data set” (2004):
The source made the active and inactive calls.

Experiments:
[1] = cytotoxicity in HEK-293T cells, dose response, cytotoxicity control for TCR NF-kB inhibitor project, luminescence, T-cell screen hits (AID 489026); format: functional, cell-based;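 also: cells exposed to compound about 14 hours before the viability readout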
Paired box protein Pax-8 = Paired box protein Pax-8 (Homo sapiens, UniProt Q06710); assay: inhibitors of PAX8-driven TPO luciferase reporter, dose response, RMG-I cells, cherry-pick (AID 687027); format: functional, cell-based;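 also: luciferase reporter driven by Pax8 target thyroperoxidase promoter measured by SteadyGlo luminescence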
[2] = microbe, parasite or virus in culture; format: functional; conditions: Mycobacterium tuberculosis
[3] = HEp-2 cell cytotoxicity, dose response, cytotoxicity control for RSV inhibitor project, HTS (AID 2410); format: functional; conditions: human respiratory syncytial virus
[4] = Shn3 3'UTR reporter inhibitors, dose response, cell-based, Clone20 osteoblasts, firefly luciferase, cherry-picked (AID 624132); format: functional;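 also: firefly luciferase luminescence from reporter carrying the Shn3 3'UTR in osteoblasts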
Genome polyprotein = Genome polyprotein (dengue virus type 2, UniProt P29990); assay: Dengue-2 NS5 methyltransferase inhibitors, primary screen, biochemical, confirmation dose response (AID 588689); format: functional
[5] = molecular target: Neurotensin receptor type 1 (Homo sapiens, UniProt P30989); format: functional;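 also: Image-based confirmatory dose-response assay measuring agonist activity at NTR1; NTR1-expressing U2OS osteosarcoma cells imaged for beta-arrestin GFP spot formation; agonist potency where compounds increase beta-arrestin recruitment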
Large T antigen = Large T antigen (Simian virus 40, UniProt P03070); format: functional, Betapolyomavirus macacae;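 also: Confirmatory-stage PubChem screen for compounds that inhibit SV40 T antigen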
[6] = control 3'UTR Renilla luciferase suppression, dose response, counter-screen for Shn3 inhibitor project, cell-based, Clone20-Shn3RL, cherry-picked (AID 624133); format: functional
[7] = molecular target: DNA damage-inducible transcript 3 protein (Mus musculus, UniProt P35639); format: functional, Cricetulus griseus
[8] = molecular target: T1, Rac GTPase-activating protein 1 (Homo sapiens, UniProt Q9H0H5); assay: MgcRacGAP GTPase-activating activity inhibitors, confirmation, biochemical, ADP Hunter fluorescence, primary and confirmatory (AID 624330); format: functional
T1 sequence (Q9H0H5 whole entry): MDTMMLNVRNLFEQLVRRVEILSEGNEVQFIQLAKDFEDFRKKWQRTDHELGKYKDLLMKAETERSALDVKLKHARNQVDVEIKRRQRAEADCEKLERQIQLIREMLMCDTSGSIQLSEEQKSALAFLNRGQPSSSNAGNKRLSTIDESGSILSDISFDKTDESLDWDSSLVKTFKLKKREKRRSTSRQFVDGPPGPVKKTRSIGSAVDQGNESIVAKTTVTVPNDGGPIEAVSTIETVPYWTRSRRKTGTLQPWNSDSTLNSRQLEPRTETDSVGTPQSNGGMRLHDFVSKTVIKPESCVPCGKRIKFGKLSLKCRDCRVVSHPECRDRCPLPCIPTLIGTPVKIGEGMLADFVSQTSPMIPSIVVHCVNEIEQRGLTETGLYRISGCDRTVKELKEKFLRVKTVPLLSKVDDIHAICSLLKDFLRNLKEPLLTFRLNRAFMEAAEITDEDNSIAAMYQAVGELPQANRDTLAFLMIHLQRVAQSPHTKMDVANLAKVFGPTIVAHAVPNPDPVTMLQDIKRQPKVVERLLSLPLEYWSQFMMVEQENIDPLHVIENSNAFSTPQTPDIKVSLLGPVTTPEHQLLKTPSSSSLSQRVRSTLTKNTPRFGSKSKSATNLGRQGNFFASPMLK

[9] = molecular target: T2, Voltage-gated N-type calcium channel alpha-1B subunit/Amyloid beta A4 precursor protein-binding family A member 1 (Homo sapiens, UniProt Q00975+Q02410); format: protein assay
[10] = molecular target: T2, Voltage-gated N-type calcium channel alpha-1B subunit/Amyloid beta A4 precursor protein-binding family A member 1; format: protein assay; remark: listed apart in the source
[11] = HeLa cell cytotoxicity, dose response, cytotoxicity control for MgcRacGAP inhibitor project (AID 624300); format: functional
INS1 = assay: beta cell apoptosis inhibitors, cytokine rescue, dose response, luminescence, retest (AID 449756); format: functional, cell-based; conditions: Rattus norvegicus;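 also: cell death triggered by IL-1 beta plus TNF-alpha plus IFN-gamma mixture; protective hits raise ATP signal compared with cytokine alone wells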
Troponin, cardiac muscle = Troponin, cardiac muscle (Homo sapiens, UniProt P19429+P45379+P63316); assay: Fluorescence-based biochemical high throughput dose response assay for activators of the calcium sensitivity of cardiac Regulated Thin Filaments (RTF). [Related pubchem assays (depositor defined):AID493008, AID493018, AID504382, AID504383]; format: protein-complex assay
[12] = Vero E6 cell cytotoxicity, dose response, cytotoxicity control for non-replicating M. tuberculosis project, secondary assay (AID 492998); format: functional, VeroE6; conditions: Vero C1008
[13] = molecular target: T3, Kappa-type opioid receptor (Homo sapiens, UniProt P41145); assay: SAR analysis of small molecule antagonists of the kappa opioid receptor via a luminescent beta-arrestin assay - Set 5. [Related pubchem assays (depositor defined):AID1778, AID1785]; format: functional
[14] = molecular target: T3, Kappa-type opioid receptor; assay: SAR analysis of small molecule antagonists of the kappa opioid receptor via a luminescent beta-arrestin assay - Set 4. [Related pubchem assays (depositor defined):AID1777, AID1778, AID1785, AID1786, AID1966, AID2133, AID2136, AID2285]; format: functional
[15] = molecular target: T4, Heat shock factor protein 1 (Mus musculus, UniProt P38532); assay: HSF1 potentiators in luciferase reporter cells, confirmation, cell-based, NIH3T3, luminescence, dose retest (AID 435004); format: functional;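 also: stress induced by proteasome inhibitor MG132 added 30 min after compound; luciferase reporter driven by HSF1 response element in NIH3T3 cells; actives raise luminescence as potentiators of the MG132 stress response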
T4 sequence (P38532 whole entry): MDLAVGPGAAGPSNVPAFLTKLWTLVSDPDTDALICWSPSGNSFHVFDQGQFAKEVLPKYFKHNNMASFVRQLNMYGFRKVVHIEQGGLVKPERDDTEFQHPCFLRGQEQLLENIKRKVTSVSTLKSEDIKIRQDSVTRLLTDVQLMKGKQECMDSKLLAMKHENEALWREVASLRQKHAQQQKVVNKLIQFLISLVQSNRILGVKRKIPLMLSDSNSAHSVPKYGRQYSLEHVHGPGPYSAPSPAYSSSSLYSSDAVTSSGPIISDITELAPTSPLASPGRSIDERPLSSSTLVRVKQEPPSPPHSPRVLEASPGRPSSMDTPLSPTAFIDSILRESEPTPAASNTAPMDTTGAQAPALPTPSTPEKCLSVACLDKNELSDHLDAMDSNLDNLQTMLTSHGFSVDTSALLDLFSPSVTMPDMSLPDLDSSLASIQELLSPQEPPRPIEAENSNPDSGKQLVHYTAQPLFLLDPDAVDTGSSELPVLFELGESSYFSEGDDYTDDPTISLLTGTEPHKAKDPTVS

[16] = growth suppression of beta-catenin-knockout colon cells, dose response, cell-based, HCT116, human colon tumor (AID 1045); format: functional;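 also: HCT116 colon tumor cells with beta catenin knocked out; cells exposed to compound for 60 hours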
Protein RecA = molecular target: T5, Protein RecA (Mycobacterium tuberculosis, UniProt P9WHJ3); assay: Fluorescence Cell-Free Homogeneous Dose Retest to Identify Inhibitors of RecA-Intein Splicing Activity. [Related pubchem assays (depositor defined):AID2097, AID2223, AID489010, AID492950]; format: functional
T5 sequence (P9WHJ3 whole entry): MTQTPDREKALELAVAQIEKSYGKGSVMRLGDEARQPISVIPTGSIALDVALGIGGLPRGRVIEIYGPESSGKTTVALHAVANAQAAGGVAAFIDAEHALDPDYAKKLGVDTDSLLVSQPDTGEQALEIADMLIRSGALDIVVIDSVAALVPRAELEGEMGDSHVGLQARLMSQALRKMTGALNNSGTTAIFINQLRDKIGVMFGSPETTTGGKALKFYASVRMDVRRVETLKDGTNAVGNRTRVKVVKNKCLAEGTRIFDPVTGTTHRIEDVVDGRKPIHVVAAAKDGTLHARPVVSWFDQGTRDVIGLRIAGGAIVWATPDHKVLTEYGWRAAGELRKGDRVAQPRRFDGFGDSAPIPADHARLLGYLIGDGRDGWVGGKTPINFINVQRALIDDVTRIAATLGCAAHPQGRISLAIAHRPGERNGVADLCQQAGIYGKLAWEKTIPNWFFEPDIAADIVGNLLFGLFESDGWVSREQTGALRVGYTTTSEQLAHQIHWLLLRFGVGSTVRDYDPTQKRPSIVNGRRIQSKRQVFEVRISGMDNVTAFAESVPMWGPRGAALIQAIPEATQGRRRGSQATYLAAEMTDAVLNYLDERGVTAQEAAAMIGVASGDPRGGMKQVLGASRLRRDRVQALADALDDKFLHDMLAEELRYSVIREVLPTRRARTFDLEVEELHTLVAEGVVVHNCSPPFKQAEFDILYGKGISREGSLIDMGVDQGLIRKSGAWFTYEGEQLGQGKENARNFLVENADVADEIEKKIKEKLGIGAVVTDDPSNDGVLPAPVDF

[17] = growth suppression of PTEN-null colon cells, dose response, cell-based, HCT116 PTEN knockout (AID 1047); format: functional;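 also: HCT116 colon tumor cells with PTEN knocked out; cells exposed to compound for 60 hours before readout; potency for loss of cell viability measured by luminescence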
[18] = Intein inhibitors as potential Tuberculosis drugs, a cytotoxicity screen. [Related pubchem assays (depositor defined):AID2221, AID2223, AID434968, AID435010, AID449749, AID449750, AID489010]; format: functional
[19] = molecular target: T6, Replicative DNA helicase DnaB (Mycobacterium tuberculosis, UniProt P9WMR3); assay: DnaB intein splicing inhibitors, dose response, biochemical, cell-free fluorescence (AID 449749); format: functional
T6 sequence (P9WMR3 whole entry): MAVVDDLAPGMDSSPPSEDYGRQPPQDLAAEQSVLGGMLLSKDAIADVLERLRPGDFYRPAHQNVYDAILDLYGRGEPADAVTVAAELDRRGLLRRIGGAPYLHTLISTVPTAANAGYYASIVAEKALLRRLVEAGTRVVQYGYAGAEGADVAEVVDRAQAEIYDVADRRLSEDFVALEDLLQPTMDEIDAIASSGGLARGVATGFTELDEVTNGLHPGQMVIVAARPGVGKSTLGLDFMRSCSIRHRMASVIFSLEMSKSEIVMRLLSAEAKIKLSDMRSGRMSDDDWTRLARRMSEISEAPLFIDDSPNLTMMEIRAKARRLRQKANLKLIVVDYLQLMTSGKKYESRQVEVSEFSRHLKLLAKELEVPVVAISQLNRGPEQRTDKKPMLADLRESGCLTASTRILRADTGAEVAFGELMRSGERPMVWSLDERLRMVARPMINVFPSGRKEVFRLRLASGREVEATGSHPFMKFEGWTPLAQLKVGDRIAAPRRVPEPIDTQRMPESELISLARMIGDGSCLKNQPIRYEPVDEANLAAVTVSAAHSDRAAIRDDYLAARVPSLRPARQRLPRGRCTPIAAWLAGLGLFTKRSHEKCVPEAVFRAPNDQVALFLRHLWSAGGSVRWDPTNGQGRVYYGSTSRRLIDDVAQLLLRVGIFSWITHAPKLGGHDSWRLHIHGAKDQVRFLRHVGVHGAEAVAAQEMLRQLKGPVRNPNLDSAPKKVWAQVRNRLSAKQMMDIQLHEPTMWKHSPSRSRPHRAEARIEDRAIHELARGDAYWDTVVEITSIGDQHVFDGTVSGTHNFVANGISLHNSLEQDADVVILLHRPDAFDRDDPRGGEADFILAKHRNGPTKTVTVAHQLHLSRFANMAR

[20] = molecular target: Tyrosine-protein phosphatase non-receptor type 7 (Homo sapiens, UniProt P35236); format: functional
[21] = molecular target: T7, Tyrosine-protein phosphatase non-receptor type 22 (Homo sapiens, UniProt Q9Y2R2); format: functional
[22] = molecular target: T7, Tyrosine-protein phosphatase non-receptor type 22; format: functional; remark: listed apart in the source
Integrin alpha-L = Integrin alpha-L (Mus musculus, UniProt P24063); assay: modulators of CD8 T cell-vesicle binding, dose response, powder samples, mouse 2C CD8+ cells (AID 504565); format: functional
T-cell = assay: inhibitors of CD8+ T cell–vesicle binding, dose response, mouse 2C CD8+ T cells, flow cytometry (AID 485284); format: functional

For COc1ccc(C[C@H](N)C(=O)N[C@H]2[C@@H](O)[C@H](n3cnc4c(N(C)C)ncnc43)O[C@@H]2CO)cc1, the IC50 [1] was > 80 µM (inactive), the AC50 (Paired box protein Pax-8) was 0.546 µM (active) and the CC50 [2] was 4.73 µM (active).
For Cc1ccc(-c2ccc(/C=C3\C(=O)ON=C3c3ccccc3)o2)c([N+](=O)[O-])c1, the CC50 [3] was 9.29 µM (active), the AC50 [4] was 3.3 µM (active) and the IC50 (Genome polyprotein) was 11.1 µM (active). The EC50 [5] was 7.89 µM (active), the IC50 (Large T antigen) was 29.5 µM (active) and the AC50 [6] was 15 µM (active). For the same molecule, the “Absolute IC50 (CHOP)” value [7] was 10 µM, the IC50 [8] was 67.2 µM (active) and the IC50 [9] was 10.5 µM (active). The IC50 [10] was > 50 µM (inactive), the CC50 [11] was 50 µM (active) and the AC50 (INS1) was 7.23 µM (active).
For CC(Oc1ccc(F)cc1)C(=O)Nc1sc2c(c1C(=O)NCc1cccnc1)CCCC2 (stereo unspecified), the EC50 (Troponin, cardiac muscle) was > 71.5 µM (inactive) and the CC50 [2] was > 40 µM (active).
For O=C(CCS(=O)(=O)Cc1ccccc1)Nc1ncc([N+](=O)[O-])s1, the CC50 [12] was > 20 µM (active).
With Cc1ccc(S(=O)(=O)NCc2ccc(C(=O)NCCN(Cc3ccccc3)CC(C)C)cc2)cc1 the IC50 [13] was 4.33 µM (active) and the IC50 [14] was > 20 µM (inactive).
In the case of Cc1cc(C)cc(Cn2ncc(Cl)c(Cl)c2=O)c1, the EC50 [15] is reported as 21.7 µM (active), the EC50 [16] is reported as 6.91 µM (active) and the EC50 (Protein RecA) is reported as 0.985 µM (active). The EC50 [17] was 8.8 µM (active), the CC50 [18] was 22.5 µM (active) and the AC50 [19] was 2.12 µM (active).
In the case of O=C(NCc1ccccc1)c1cncc(Br)c1, the IC50 [20] is reported as > 79.4 µM (inactive), the IC50 [21] is reported as > 79.4 µM (inactive) and the IC50 [22] is reported as > 79.4 µM (inactive).
For CCOC(=O)c1ccc(S(=O)(=O)N2CCN(C3CCCC3)CC2)cc1, the EC50 (Integrin alpha-L) was 11 µM (active) and the EC50 (T-cell) was 22.2 µM (active).
